Patent publication US11214803B2, “Modulators of YAP1 expression” (Ionis Pharmaceuticals, Inc., priority 2019, dated 2022)
Strand notation (5' to 3'): a small letter for the sugar, then the base; units joined by * are phosphorothioate-linked, units joined directly phosphodiester-linked; [ ] holds rarer units or linkages, { } end groups; capitals alone tell only the bases. k = constrained ethyl (cEt); [5mC] = 5-methylcytosine; d = 2'-deoxy (DNA)

System: Yap1 mRNA
Assay: Antisense inhibition of human Yap1 in A-431 cells by cEt gapmers, single dose (Example 3, RTS36584)
Assay type: cell-based
Protocol: Modified oligonucleotides were designed to target a Yap1 nucleic acid and were tested for their effect on Yap1 mRNA level in vitro. The modified oligonucleotides were tested in a series of experiments that had similar culture conditions. Cultured A-431 cells at a density of 5,000 cells per well were treated using free uptake with 2,000 nM of modified oligonucleotide. After a treatment period of approximately 48 hours, RNA was isolated from the cells and Yap1 mRNA levels were measured by quantitative real-time RTPCR. Human primer probe set RTS36584 (forward sequence […], designated herein as SEQ ID NO.: 14; reverse sequence […], designated herein as SEQ ID NO.: 15; probe sequence […], designated herein as SEQ ID NO.: 16) was used to measure mRNA levels. Yap1 mRNA levels were normalized to total RNA content, as measured by RIBOGREEN®. Results are presented in the tables below as percent control of the amount of Yap1 mRNA relative to untreated control cells (% UTC). The modified oligonucleotides with percent control values marked with an asterisk (*) target the amplicon region of the primer probe set. Additional assays may be used to measure the potency and efficacy of the modified oligonucleotides targeting the amplicon region.
The newly designed modified oligonucleotides in the Tables below were designed as 3-10-3 cEt gapmers. The gapmers are 16 nucleosides in length, wherein the central gap segment comprises of ten 2′-deoxynucleosides and is flanked by wing segments on the 5′ direction and the 3′ direction comprising three nucleosides each. Each nucleoside in the 5′ wing segment and each nucleoside in the 3′ wing segment has a cEt sugar modification. The internucleoside linkages throughout each gapmer are phosphorothioate (P═S) linkages. All cytosine residues throughout each gapmer are 5-methylcytosines.
“Start site” indicates the 5′-most nucleoside to which the gapmer is targeted in the human gene sequence. “Stop site” indicates the 3′-most nucleoside to which the gapmer is targeted human gene sequence. […] Activity of the modified oligonucleotide may be defined in a different experiment.

[1] = Table 13, A-431 cells, 5,000 cells per well, free uptake, 2,000 nM modified oligonucleotide, approx. 48 hours, RTS36584, normalized to RIBOGREEN, Yap1 mRNA relative to untreated control cells
[2] = Table 12, A-431 cells, 5,000 cells per well, free uptake, 2,000 nM modified oligonucleotide, approx. 48 hours, RTS36584, normalized to RIBOGREEN, Yap1 mRNA relative to untreated control cells
[3] = Table 9, A-431 cells, 5,000 cells per well, free uptake, 2,000 nM, approximately 48 hours, RTS36584, normalized to RIBOGREEN, Yap1 mRNA relative to untreated control cells
[4] = Table 10, A-431 cells, 5,000 cells per well, free uptake, 2,000 nM oligonucleotide, approx. 48 hours, primer probe set RTS36584, Yap1 mRNA normalized to RIBOGREEN, percent of untreated control
[5] = Table 27, Yap1 mRNA by 3-10-3 cEt gapmers targeting SEQ ID NO.: 1, and 2, percent of untreated control
[6] = Table 34, Yap1 mRNA as percent of untreated control, 3-10-3 cEt gapmers targeting SEQ ID NO: 1 and 2, single dose
[7] = Table 29, Yap1 mRNA as percent of untreated control, 3-10-3 cEt gapmers targeting SEQ ID NO.: 1, and 2
[8] = Table 35, Yap1 mRNA as percent of untreated control, 3-10-3 cEt gapmers targeting SEQ ID NO: 1 and 2, single dose
[9] = Table 8, A-431 cells, 5,000 cells per well, free uptake, 2,000 nM, approximately 48 hours, RTS36584, normalized to RIBOGREEN, Yap1 mRNA relative to untreated control cells
[10] = Table 26, Yap1 mRNA by 3-10-3 cEt gapmers targeting SEQ ID NO.: 1, and 2, percent of untreated control

Substance: 958705 (antisense kG*kG*k[5mC]*d[5mC]*dA*dT*d[5mC]*dA*dA*dT*dA*dA*dA*kG*kA*k[5mC]) [Compound 958705]
- YAP1 (% UTC) [1]: 112 % UTC

Substance: 958809 (kT*k[5mC]*kT*dT*dA*dA*d[5mC]*dA*d[5mC]*d[5mC]*dT*dG*dA*kG*k[5mC]*kT; antisense) [Compound 958809]
- YAP1 (% UTC) [2]: 66 % UTC

Substance: 958566 (kA*k[5mC]*k[5mC]*dT*dA*dT*dG*dA*dA*d[5mC]*dT*dA*dT*kT*kA*kT; antisense) [Compound 958566]
- YAP1 (% UTC) [3]: 18 % UTC

Substance: 958717 (antisense kA*kA*kT*dA*dA*dT*dA*dT*dA*dG*d[5mC]*dT*dT*kA*k[5mC]*kG) [Compound 958717]
- YAP1 (% UTC) [4]: 11 % UTC

Substance: 1075597 (antisense kA*kT*kT*dA*dA*d[5mC]*dA*dT*dT*dT*dG*d[5mC]*d[5mC]*k[5mC]*kG*k[5mC]) [compound 1075597]
- YAP1 (% UTC) [5]: 47 % UTC

Substance: 1074132 (k[5mC]*kG*kG*d[5mC]*d[5mC]*d[5mC]*d[5mC]*dG*d[5mC]*dA*dT*d[5mC]*d[5mC]*k[5mC]*k[5mC]*k[5mC]; antisense) [compound 1074132]
- YAP1 (% UTC) [6]: 96 % UTC

Substance: 958785 (antisense kG*k[5mC]*kA*dA*dT*d[5mC]*d[5mC]*dA*d[5mC]*dA*dA*dT*dT*k[5mC]*k[5mC]*kA) [Compound 958785]
- YAP1 (% UTC) [1]: 2 % UTC

Substance: 958727 (antisense kA*kT*k[5mC]*dT*dG*dT*d[5mC]*dA*dG*dT*dT*dA*dT*k[5mC]*k[5mC]*kT) [Compound 958727]
- YAP1 (% UTC) [4]: 2 % UTC

Substance: 958690 (antisense kT*kG*kG*dA*d[5mC]*dT*d[5mC]*dT*dT*dG*dA*dT*d[5mC]*kA*k[5mC]*kA) [Compound 958690]
- YAP1 (% UTC) [1]: 26 % UTC

Substance: 1076335 (antisense k[5mC]*kA*k[5mC]*d[5mC]*dT*dA*dT*dA*dA*dG*dG*dA*dA*kT*kG*kG) [compound 1076335]
- YAP1 (% UTC) [7]: 80 % UTC

Substance: 958465 (antisense kG*kG*k[5mC]*dT*dT*d[5mC]*dA*dA*dG*dG*dT*dA*dG*kT*k[5mC]*kT) [Compound 958465]
- YAP1 (% UTC) [1]: 84 % UTC

Substance: 1076309 (kG*kA*kT*dA*dA*d[5mC]*dT*dT*dT*d[5mC]*d[5mC]*dA*d[5mC]*kA*kA*kT; antisense) [compound 1076309]
- YAP1 (% UTC) [8]: 9 % UTC

Substance: 958541 (kG*kT*kA*dT*dT*d[5mC]*dT*dA*dT*d[5mC]*d[5mC]*dA*dG*kG*kG*kT; antisense) [Compound 958541]
- YAP1 (% UTC) [3]: 4 % UTC

Substance: 1074836 (kA*kA*k[5mC]*dA*dA*d[5mC]*dA*dT*dG*d[5mC]*dT*dT*dG*k[5mC]*kG*kA; antisense) [compound 1074836]
- YAP1 (% UTC) [6]: 27 % UTC

Substance: 1075694 (kA*k[5mC]*kA*dT*dT*dA*dA*dA*dA*dG*dT*dT*dG*kG*kG*kT; antisense) [compound 1075694]
- YAP1 (% UTC) (Table 28, Yap1 mRNA as percent of untreated control, 3-10-3 cEt gapmers targeting SEQ ID NO.: 1, and 2): 11 % UTC

Substance: 958423 (antisense kG*kA*kT*d[5mC]*dA*dA*d[5mC]*dA*dT*dG*d[5mC]*dT*dA*kA*k[5mC]*kA) [Compound 958423]
- YAP1 (% UTC) [9]: 51 % UTC

Substance: 1074732 (k[5mC]*k[5mC]*kA*dG*dG*dT*dA*dT*d[5mC]*dA*d[5mC]*dA*dG*kT*kA*k[5mC]; antisense) [compound 1074732]
- YAP1 (% UTC) [10]: 30 % UTC

Substance: 1075284 (antisense k[5mC]*kT*kT*dT*dT*d[5mC]*dG*dA*dA*dT*dA*dT*dA*kG*kA*kA) [compound 1075284]
- YAP1 (% UTC) [6]: 76 % UTC

Substance: 958400 (antisense kT*kT*kG*dA*d[5mC]*d[5mC]*dA*dA*d[5mC]*dT*dA*d[5mC]*dT*kT*kG*kA) [Compound 958400]
- YAP1 (% UTC) [9]: 26 % UTC

Substance: 1075759 (k[5mC]*k[5mC]*kT*dT*dA*dT*dA*dA*dA*dT*dT*dA*dT*kG*kA*k[5mC]; antisense) [compound 1075759]
- YAP1 (% UTC) [7]: 44 % UTC

Substance: 958479 (antisense kA*kT*kG*dG*dA*dA*dA*dT*dT*dT*d[5mC]*d[5mC]*dG*kG*kT*kG) [Compound 958479]
- YAP1 (% UTC) [2]: 15 % UTC

Substance: 958814 (kG*kG*k[5mC]*dT*dA*dT*dG*d[5mC]*d[5mC]*dT*d[5mC]*dT*d[5mC]*kT*kT*kA; antisense) [Compound 958814]
- YAP1 (% UTC) [2]: 214 % UTC

Substance: 958637 (antisense k[5mC]*k[5mC]*kG*d[5mC]*dA*dG*dA*dG*dA*dG*dA*dA*dA*k[5mC]*kT*k[5mC]) [Compound 958637]
- YAP1 (% UTC) [4]: 101 % UTC

Substance: 958457 (antisense kG*kT*k[5mC]*dG*dA*dA*dG*dA*dT*dG*d[5mC]*dT*dG*kA*kG*k[5mC]) [Compound 958457]
- YAP1 (% UTC) [4]: 5 % UTC

Substance: 1076365 (antisense kT*kA*kA*dG*dA*dA*dG*dG*dG*d[5mC]*d[5mC]*dA*dA*kT*kG*kG) [compound 1076365]
- YAP1 (% UTC) [5]: 15 % UTC

Substance: 1076532 (kA*kT*kT*dT*dT*dT*dA*dG*dG*d[5mC]*dA*dG*dA*k[5mC]*kG*k[5mC]; antisense) [compound 1076532]
- YAP1 (% UTC) [6]: 12 % UTC

Substance: 1075436 (antisense k[5mC]*k[5mC]*kT*dT*dA*dA*dA*d[5mC]*dG*dA*dT*dA*dA*kA*kG*kT) [compound 1075436]
- YAP1 (% UTC) [10]: 89 % UTC

Substance: 958484 (antisense kG*k[5mC]*kA*dG*d[5mC]*dA*dA*dT*dG*dG*dA*d[5mC]*dA*kA*kG*kG) [Compound 958484]
- YAP1 (% UTC) [2]: 2 % UTC

Substance: 958401 (antisense kA*kG*kT*dT*dA*dT*dT*d[5mC]*dA*dG*d[5mC]*dA*dG*k[5mC]*kT*kT) [Compound 958401]
- YAP1 (% UTC) [9]: 19 % UTC

Substance: 1075253 (kG*kT*kT*dA*dA*dT*dT*dA*d[5mC]*dG*dA*dT*dT*kA*kG*kA; antisense) [compound 1075253]
- YAP1 (% UTC) [8]: 20 % UTC

Substance: 958670 (kG*kG*kT*d[5mC]*dT*dT*dG*dG*dT*dG*dA*dT*dT*kG*kG*k[5mC]; antisense) [Compound 958670]
- YAP1 (% UTC) [1]: 20 % UTC

Substance: 958816 (kG*kT*kG*dA*dT*dA*dA*d[5mC]*dA*dT*dA*dT*d[5mC]*k[5mC]*k[5mC]*kA; antisense) [Compound 958816]
- YAP1 (% UTC) [3]: 71 % UTC

Substance: 1074933 (antisense kA*kG*kG*dA*dG*dA*d[5mC]*dT*dA*dT*dA*d[5mC]*dA*kA*k[5mC]*kA) [compound 1074933]
- YAP1 (% UTC) [8]: 72 % UTC

Substance: 1075661 (antisense kG*kA*kA*dT*dA*dG*dG*dA*dT*dA*d[5mC]*dA*dA*kG*k[5mC]*kA) [compound 1075661]
- YAP1 (% UTC) [5]: 74 % UTC

Substance: 1075349 (antisense kA*kT*kT*dA*dA*dA*dG*d[5mC]*dT*d[5mC]*dA*dT*dT*kG*kA*kT) [compound 1075349]
- YAP1 (% UTC) [8]: 81 % UTC

Substance: 958450 (antisense kG*kG*kT*d[5mC]*dG*d[5mC]*d[5mC]*dG*d[5mC]*dG*dG*dG*dT*kG*k[5mC]*k[5mC]) [Compound 958450]
- YAP1 (% UTC) [1]: 59 % UTC

Substance: 958744 (antisense kG*k[5mC]*kA*dT*dA*d[5mC]*dT*dG*dG*dT*dG*d[5mC]*d[5mC]*k[5mC]*k[5mC]*kA) [Compound 958744]
- YAP1 (% UTC) [2]: 45 % UTC

Substance: 958527 (kG*kT*kA*dA*dG*dT*dA*dA*dG*dA*dA*d[5mC]*dA*kA*kT*k[5mC]; antisense) [Compound 958527]
- YAP1 (% UTC) [4]: 4 % UTC

Substance: 1074796 (k[5mC]*kT*k[5mC]*d[5mC]*dA*dA*dA*dT*d[5mC]*dA*dA*dT*dG*kT*kG*k[5mC]; antisense) [compound 1074796]
- YAP1 (% UTC) [10]: 22 % UTC

Substance: 958741 (antisense kG*kT*kT*dA*d[5mC]*dT*dG*d[5mC]*dA*dA*d[5mC]*dT*dG*k[5mC]*k[5mC]*k[5mC]) [Compound 958741]
- YAP1 (% UTC) [3]: 14 % UTC

Substance: 958411 (antisense k[5mC]*kT*kT*dT*dA*d[5mC]*d[5mC]*dA*dA*dA*dA*d[5mC]*dG*kA*kG*kG) [Compound 958411]
- YAP1 (% UTC) [9]: 90 % UTC
